Experiments:
[1] = target: Neuronal acetylcholine receptor; experiment: Tested for neuronal nicotinic acetylcholine receptor (nAChR) binding in a whole rat brain preparation using […] as the radioligand.
[2] = target: T1, Neuronal acetylcholine receptor; alpha4/beta2 (Homo sapiens, UniProt P17787+P43681); experiment: Tested for functional activity against neuronal nicotinic acetylcholine receptor(nAChR) expressed in K177 cells using isotopic rubidium efflux assay.; type: cell-based
[3] = Tested for functional activity against neuronal nicotinic acetylcholine receptor(nAChR) expressed in IMR-32 cells using isotopic rubidium efflux assay.; type: cell-based; settings: Homo sapiens
[4] = Percent intrinsic activity against IMR-32 cells relative to 100 uM (S)-nicotine.; type: functional, Homo sapiens
[5] = target: T1, Neuronal acetylcholine receptor; alpha4/beta2; experiment: (§1) Percent intrinsic activity against K177 cells relative to 100 uM (S)-nicotine.; type: functional, cell-based
[6] = target: T2, Acetylcholine receptor subunit alpha (Homo sapiens, UniProt P02708); experiment: Tested for functional activity against alpha-1 neuronal nicotinic acetylcholine receptor(nAChR) expressed in TE671 cells using isotopic rubidium efflux assay.; type: cell-based, TE-671
Rattus norvegicus [7] = species on record: Rattus norvegicus; experiment: Tested for nAChR-mediated dopamine release from rat striatal slices.; type: functional
Rattus norvegicus [8] = species on record: Rattus norvegicus; experiment: Percent intrinsic activity relative to 100 uM (S)-nicotine.; type: functional
[9] = target: T2, Acetylcholine receptor subunit alpha; experiment: Percent intrinsic activity against TE671 cells relative to 100 uM (S)-nicotine.; type: functional, cell-based; settings: TE-671
[10] = target: T2, Acetylcholine receptor subunit alpha; experiment: as §1; type: functional, cell-based

T2 sequence (P02708 whole entry): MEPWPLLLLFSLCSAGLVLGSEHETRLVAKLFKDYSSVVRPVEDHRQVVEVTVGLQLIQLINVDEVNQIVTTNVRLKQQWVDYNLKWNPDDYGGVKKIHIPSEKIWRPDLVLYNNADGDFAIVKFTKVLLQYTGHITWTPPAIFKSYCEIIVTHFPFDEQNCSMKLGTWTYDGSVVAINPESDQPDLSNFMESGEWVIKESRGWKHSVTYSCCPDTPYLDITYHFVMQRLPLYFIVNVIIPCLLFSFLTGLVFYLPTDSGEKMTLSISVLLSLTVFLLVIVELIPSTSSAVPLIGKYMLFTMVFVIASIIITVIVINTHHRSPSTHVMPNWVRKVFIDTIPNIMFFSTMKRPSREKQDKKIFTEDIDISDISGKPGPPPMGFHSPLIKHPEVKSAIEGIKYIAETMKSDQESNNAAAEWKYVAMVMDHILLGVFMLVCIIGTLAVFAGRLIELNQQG
T1 sequence (P17787 whole entry): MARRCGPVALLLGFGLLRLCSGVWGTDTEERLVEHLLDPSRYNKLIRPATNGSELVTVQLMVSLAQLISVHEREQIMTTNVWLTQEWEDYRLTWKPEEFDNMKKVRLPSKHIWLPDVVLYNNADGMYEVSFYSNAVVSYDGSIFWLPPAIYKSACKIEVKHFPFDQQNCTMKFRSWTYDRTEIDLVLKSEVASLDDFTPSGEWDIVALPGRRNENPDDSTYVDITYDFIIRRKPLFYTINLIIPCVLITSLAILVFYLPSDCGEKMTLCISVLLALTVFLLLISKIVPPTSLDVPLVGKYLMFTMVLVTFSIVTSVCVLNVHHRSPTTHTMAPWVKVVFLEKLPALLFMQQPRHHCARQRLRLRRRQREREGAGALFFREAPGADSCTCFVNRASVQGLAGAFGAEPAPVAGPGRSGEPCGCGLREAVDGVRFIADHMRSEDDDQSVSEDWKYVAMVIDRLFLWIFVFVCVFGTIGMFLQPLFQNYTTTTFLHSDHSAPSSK
T1 sequence (P43681 whole entry): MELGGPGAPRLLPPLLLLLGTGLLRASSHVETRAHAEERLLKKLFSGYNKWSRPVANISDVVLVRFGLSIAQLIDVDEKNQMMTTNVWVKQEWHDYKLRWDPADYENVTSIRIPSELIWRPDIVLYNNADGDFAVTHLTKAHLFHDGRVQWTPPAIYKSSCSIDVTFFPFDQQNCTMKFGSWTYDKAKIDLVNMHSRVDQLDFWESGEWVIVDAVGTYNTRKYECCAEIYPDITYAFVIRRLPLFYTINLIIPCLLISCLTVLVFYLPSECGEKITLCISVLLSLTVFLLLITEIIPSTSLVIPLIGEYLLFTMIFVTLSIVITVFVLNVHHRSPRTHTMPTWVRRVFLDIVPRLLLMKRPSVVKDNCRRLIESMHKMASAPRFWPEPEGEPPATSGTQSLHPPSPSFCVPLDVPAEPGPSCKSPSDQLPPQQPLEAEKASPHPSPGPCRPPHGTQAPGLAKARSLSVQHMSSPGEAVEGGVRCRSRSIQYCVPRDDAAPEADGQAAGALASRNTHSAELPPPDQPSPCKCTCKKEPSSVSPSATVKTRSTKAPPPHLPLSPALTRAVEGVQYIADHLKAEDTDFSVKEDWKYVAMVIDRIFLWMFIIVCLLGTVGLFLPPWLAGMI

Row | Compound | Ki [1] [µM] | EC50 [2] [µM] | EC50 [3] [µM] | Intrinsic activity [4] [%] | Intrinsic activity [5] [%] | EC50 [6] [µM] | EC50 (Rattus norvegicus [7]) [µM] | Intrinsic activity (Rattus norvegicus [8]) [%] | Intrinsic activity [9] [%] | Intrinsic activity [10] [%]
1 | c1cnc2cc([C@H]3CCCN3)oc2c1 | 0.00511 | 11 | 41.5 | 57.8 | 30 | – | – | – | – | –
2 | Cc1cc([C@@H]2CCCN2C)on1 [ABT-418] | – | 10.6 | 64 | 85 | 93 | 411 | 380 | 100 | 38 | –
3 | CN1CCC[C@H]1COc1cccnc1 | – | 0.75 | 24 | 77.2 | 100 | 34 | 107 | 74 | 40 | –
4 | c1cnc2cc([C@@H]3CCCN3)oc2c1 | 0.0758 | – | > 1000 | 9.2 | – | – | – | – | – | 7.4
5 | CN1CCC[C@@H]1c1cc2ncccc2o1 | 0.0979 | > 1000 | > 1000 | 15.2 | 5.7 | – | – | – | – | –
6 | CN1CCC[C@H]1c1cc2ncccc2o1 | 0.00273 | 3.2 | > 1000 | 10.6 | 81 | > 100 | 141 | 43 | 18.9 | –
7 | CN1CCC[C@H]1c1cccnc1 [NICOTINE] | – | – | 21 | 100 | 100 | 180 | – | 100 | 100 | –

Source: ChEMBL document CHEMBL1149929, “Novel 2-(2-furo[3,2-b]pyridinyl) pyrrolidines: potent neuronal nicotinic acetylcholine receptor ligands” (Bioorg Med Chem Lett, 1997)
